In US11124554B2, “Modified ligand-gated ion channels and methods of use” (Howard Hughes Medical Institute, priority 2016, dated 2021):
Like-named read-outs stand apart in the source and are kept apart here.

Assays:
α7-GlyR^A298G = target: T1, α7-GlyR^A298G (Homo sapiens, UniProt P36544, A298G); assay: Agonist potency (EC50), HEK cells expressing chimeric channel; type: cell-based
T1 construct: expressed in transfected cells; host or cells: HEK cells

α7^Y115F,G175K-GlyR = target: T2, α7^Y115F,G175K-GlyR (Homo sapiens, UniProt P36544, G175K/Y115F); assay: Agonist potency at chimeric channel; type: cell-based
T2 construct: expressed in transfected cells
T2 sequence (P36544 with tags, fused parts or gaps Y115F/G175K): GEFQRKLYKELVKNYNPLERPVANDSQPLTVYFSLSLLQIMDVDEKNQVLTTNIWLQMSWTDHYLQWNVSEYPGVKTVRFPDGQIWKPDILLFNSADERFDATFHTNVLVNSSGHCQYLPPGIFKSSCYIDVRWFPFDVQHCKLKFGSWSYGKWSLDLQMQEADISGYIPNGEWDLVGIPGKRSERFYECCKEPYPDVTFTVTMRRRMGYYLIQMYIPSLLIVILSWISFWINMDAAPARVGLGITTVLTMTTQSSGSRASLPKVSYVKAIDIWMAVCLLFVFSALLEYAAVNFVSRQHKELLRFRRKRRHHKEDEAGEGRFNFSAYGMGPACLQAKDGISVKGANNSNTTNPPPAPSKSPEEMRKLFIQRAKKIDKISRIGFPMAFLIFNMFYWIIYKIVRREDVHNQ

α7^W77F,Q79G,G175K-GlyR = target: T3, α7^W77F,Q79G,G175K-GlyR (Homo sapiens, UniProt P36544, G175K/Q79G/W77F); assay: Agonist potency at chimeric channel; type: cell-based
T3 construct: expressed in transfected cells
T3 sequence (P36544 with tags, fused parts or gaps W77F/Q79G/G175K): as the sequence (P36544 with tags, fused parts or gaps Y115F/G175K) above, with W55F, Q57G, F93Y counted along it

α7^L131Q-GlyR = target: T4, α7^L131Q-GlyR (Homo sapiens, UniProt P36544, L131Q); assay: Agonist potency at chimeric channel (Table 9); type: cell-based
T4 construct: expressed in transfected cells
T4 sequence (P36544 with tags, fused parts or gaps L131Q): as the sequence (P36544 with tags, fused parts or gaps Y115F/G175K) above, with F93Y, L109Q, K153G counted along it

α7-5HT3 = target: T5, α7-5HT3 (Homo sapiens, UniProt P36544, M226I/T225I); assay: Agonist potency (EC50), HEK cells expressing chimeric channel; type: cell-based, human α7 nAChR LBD, murine 5HT3 IPD
T5 construct: expressed in transfected cells; host or cells: HEK cells
T5 sequence (P36544 with tags, fused parts or gaps T225I/M226I): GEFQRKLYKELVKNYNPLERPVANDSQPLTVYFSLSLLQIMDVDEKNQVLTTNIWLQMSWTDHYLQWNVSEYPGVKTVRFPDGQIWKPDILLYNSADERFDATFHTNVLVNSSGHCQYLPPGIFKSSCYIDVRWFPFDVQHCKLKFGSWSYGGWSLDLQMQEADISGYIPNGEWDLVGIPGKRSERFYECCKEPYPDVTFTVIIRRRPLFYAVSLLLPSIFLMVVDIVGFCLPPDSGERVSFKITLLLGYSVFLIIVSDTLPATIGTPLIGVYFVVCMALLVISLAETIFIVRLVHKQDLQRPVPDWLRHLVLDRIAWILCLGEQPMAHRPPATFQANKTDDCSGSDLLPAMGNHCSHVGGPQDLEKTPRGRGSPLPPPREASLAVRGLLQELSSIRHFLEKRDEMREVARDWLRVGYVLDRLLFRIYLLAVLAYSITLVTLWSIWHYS

α7^L131G-5HT3 HC = target: T6, α7^L131G-5HT3 HC (Homo sapiens, UniProt P36544, L131G, form not given); assay: Agonist potency at chimeric channel (Table 9); type: cell-based; details: read-out: Agonist potency
T6 construct: rows headed: Agonist potency; other: α75HT3 L131G HC; α75HT3 L131G HC; fused on or other part: 5-HT3A receptor ion pore domain at the C-terminus
T6 sequence (P36544 23-224 L131G limits assumed, form open): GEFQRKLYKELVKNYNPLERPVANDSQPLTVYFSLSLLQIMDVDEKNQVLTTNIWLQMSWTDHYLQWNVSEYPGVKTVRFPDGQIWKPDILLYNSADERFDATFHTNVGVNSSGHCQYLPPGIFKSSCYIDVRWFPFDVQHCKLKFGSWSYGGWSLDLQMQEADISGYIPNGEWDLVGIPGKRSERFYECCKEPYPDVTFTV

α7^Q79S-5HT3 = target: T7, α7^Q79S-5HT3 (Homo sapiens, UniProt P36544, M226I/Q79S/T225I); assay: Agonist potency (EC50), HEK cells expressing chimeric channel; type: cell-based, human α7 nAChR LBD, murine 5HT3 IPD; details: read-out: Mean EC50, α7^Q79S-5HT3
T7 construct: expressed in transfected cells; host or cells: HEK cells

α7^L131G,Q139L-GlyR = target: T8, α7^L131G,Q139L-GlyR (Homo sapiens, UniProt P36544, L131G/Q139L); assay: Agonist potency at chimeric channel (Table 9); type: cell-based
T8 construct: expressed in transfected cells

α7^W77F,G175K,Y210F-GlyR = target: T9, α7^W77F,G175K,Y210F-GlyR (Homo sapiens, UniProt P36544, G175K/W77F/Y210F); assay: Agonist potency at chimeric channel; type: cell-based
T9 construct: expressed in transfected cells
T9 sequence (P36544 with tags, fused parts or gaps W77F/G175K/Y210F): as the sequence (P36544 with tags, fused parts or gaps Y115F/G175K) above, with W55F, F93Y, Y188F counted along it

[1] = target: T10, α7^L141F,Y115F,G175K-GlyR (Homo sapiens, UniProt P36544, G175K/L141F/Y115F); assay: Agonist potency at chimeric channel; type: cell-based
T10 construct: expressed in transfected cells

α7^G175K,Y210F-GlyR = target: T11, α7^G175K,Y210F-GlyR (Homo sapiens, UniProt P36544, G175K/Y210F); assay: Agonist potency at chimeric channel; type: cell-based
T11 construct: expressed in transfected cells
T11 sequence (P36544 with tags, fused parts or gaps G175K/Y210F): as the sequence (P36544 with tags, fused parts or gaps Y115F/G175K) above, with F93Y, Y188F counted along it

α7^L131V-GlyR = target: T12, α7^L131V-GlyR (Homo sapiens, UniProt P36544, L131V); assay: Agonist potency at chimeric channel (Table 9); type: cell-based
T12 construct: expressed in transfected cells

α7^G175K-GlyR = target: T13, α7^G175K-GlyR (Homo sapiens, UniProt P36544, G175K); assay: Agonist potency at chimeric channel; type: cell-based
T13 construct: expressed in transfected cells
T13 sequence (P36544 with tags, fused parts or gaps G175K): as the sequence (P36544 with tags, fused parts or gaps Y115F/G175K) above, with F93Y counted along it

α7^L131G-GlyR = target: T14, α7^L131G-GlyR (Homo sapiens, UniProt P36544, L131G); assay: Agonist potency at chimeric channel (Table 9); type: cell-based
T14 construct: expressed in transfected cells
T14 sequence (P36544 with tags, fused parts or gaps L131G): as the sequence (P36544 with tags, fused parts or gaps Y115F/G175K) above, with F93Y, L109G, K153G counted along it

[2] = target: T15, α7GlyR R27D E41R Q79G Y115F (Homo sapiens, UniProt P36544, E41R/Q79G/R27D/Y115F); assay: Agonist potency at chimeric channel (Table 7); type: cell-based
T15 construct: expressed in transfected cells

α7^L131M-GlyR = target: T16, α7^L131M-GlyR (Homo sapiens, UniProt P36544, L131M); assay: Agonist potency at chimeric channel (Table 9); type: cell-based
T16 construct: expressed in transfected cells

α7GABAc (GABAA-ρ) W298A = target: T17, α7GABAc (GABAA-ρ) W298A (Homo sapiens, UniProt P36544, L141F/Q79G); assay: Agonist potency at chimeric channel (Table 7); type: cell-based
T17 construct: expressed in transfected cells

[3] = target: T18, α7GlyR Q79G Y115F G175K Y210F (Homo sapiens, UniProt P36544, G175K/Q79G/Y115F/Y210F); assay: Agonist potency at chimeric channel; type: cell-based
T18 construct: expressed in transfected cells

α7^Q79S,L131G-GlyR = target: T19, α7^Q79S,L131G-GlyR (Homo sapiens, UniProt P36544, L131G/Q79S); assay: Agonist potency at chimeric channel (Table 9); type: cell-based
T19 construct: expressed in transfected cells

α7^Q79G,Y115F,G175K-GlyR = target: T20, α7^Q79G,Y115F,G175K-GlyR (Homo sapiens, UniProt P36544, G175K/Q79G/Y115F); assay: Agonist potency at chimeric channel; type: cell-based
T20 construct: expressed in transfected cells

α7GlyR L131G D219A = target: T21, α7GlyR L131G D219A (Homo sapiens, UniProt P36544, D219A/L131G); assay: Agonist potency at chimeric channel (Table 9); type: cell-based
T21 construct: expressed in transfected cells

α7^Q79G,Q139L,G175K-GlyR = target: T22, α7^Q79G,Q139L,G175K-GlyR (Homo sapiens, UniProt P36544, G175K/Q139L/Q79G); assay: Agonist potency at chimeric channel; type: cell-based
T22 construct: expressed in transfected cells

α7^Q79A-5HT3 = target: T23, α7^Q79A-5HT3 (Homo sapiens, UniProt P36544, M226I/Q79A/T225I); assay: Agonist potency (EC50), HEK cells expressing chimeric channel; type: cell-based, human α7 nAChR LBD, murine 5HT3 IPD; details: read-out: Mean EC50, α7^Q79A-5HT3
T23 construct: expressed in transfected cells; host or cells: HEK cells
T23 sequence (P36544 with tags, fused parts or gaps Q79A/T225I/M226I): as the sequence (P36544 with tags, fused parts or gaps T225I/M226I) above, with Q57A counted along it

[4] = test system: α7GlyR chimeric channels with G175K and A298G mutations; type: cell-based, human
α7^Q79G,G175K-GlyR = target: T24, α7^Q79G,G175K-GlyR (Homo sapiens, UniProt P36544, G175K/Q79G); assay: Agonist potency at chimeric channel; type: cell-based
T24 construct: expressed in transfected cells
T24 sequence (P36544 with tags, fused parts or gaps Q79G/G175K): as the sequence (P36544 with tags, fused parts or gaps Y115F/G175K) above, with Q57G, F93Y counted along it

α7^L131A-GlyR = target: T25, α7^L131A-GlyR (Homo sapiens, UniProt P36544, L131A); assay: Agonist potency at chimeric channel (Table 9); type: cell-based
T25 construct: expressed in transfected cells

α7^Q79S-GlyR = target: T26, α7^Q79S-GlyR (Homo sapiens, UniProt P36544, Q79S); assay: Agonist potency (EC50), HEK cells expressing chimeric channel; type: cell-based
T26 construct: expressed in transfected cells; host or cells: HEK cells

α7^Q79G-GlyR = target: T27, α7^Q79G-GlyR (Homo sapiens, UniProt P36544, Q79G); assay: as above; type: cell-based
T27 construct: expressed in transfected cells; host or cells: HEK cells

α7^L131G,Y217F-GlyR = target: T28, α7^L131G,Y217F-GlyR (Homo sapiens, UniProt P36544, L131G/Y217F); assay: Agonist potency at chimeric channel (Table 9); type: cell-based
T28 construct: expressed in transfected cells
T28 sequence (P36544 with tags, fused parts or gaps L131G/Y217F): as the sequence (P36544 with tags, fused parts or gaps Y115F/G175K) above, with F93Y, L109G, K153G, Y195F counted along it

[5] = read-out: Agonist potency; α7GlyR Q79G A298G G175K Y115F
[6] = read-out: Agonist potency; α7GlyR Q79G A298G P2161
[7] = read-out: Agonist potency; α7GlyR Q79G A298G Y115F K395 K396A
[8] = read-out: Agonist potency; α7GlyR Q79G G175K A298G
[9] = read-out: Agonist potency; α7GlyR Q79G W77F A298G

SMILES	EC50 (α7^Y115F,G175K-GlyR) [nM]	EC50 (α7^W77F,Q79G,G175K-GlyR) [nM]	EC50 (α7^L131Q-GlyR) [nM]	EC50 (α7^L131G,Q139L-GlyR) [nM]	EC50 (α7^W77F,G175K,Y210F-GlyR) [nM]	EC50 [1] [nM]	EC50 (α7^G175K,Y210F-GlyR) [nM]	EC50 (α7^L131V-GlyR) [nM]	EC50 (α7^G175K-GlyR) [nM]	EC50 (α7^L131G-GlyR) [nM]	EC50 [2] [nM]	EC50 (α7^L131M-GlyR) [nM]	EC50 [3] [nM]	EC50 (α7^Q79S,L131G-GlyR) [nM]	EC50 (α7^Q79G,Y115F,G175K-GlyR) [nM]	EC50 (α7GlyR L131G D219A) [nM]	EC50 (α7^Q79G,Q139L,G175K-GlyR) [nM]	EC50 (α7^Q79G,G175K-GlyR) [nM]	EC50 (α7^L131A-GlyR) [nM]	EC50 (α7^Q79S-GlyR) [nM]	also measured
O=c1cccc2n1C[C@@H]1CNC[C@H]2C1 [Cytisine]	7100	6900	> 30000	12000	5100	4740	> 10000	4300	400	13100	> 30000	7000	> 30000	8100	> 10000	> 30000	3240	2500	20600	2500	EC50 (α7-GlyR^A298G): 2100 nM; EC50 (α7-5HT3; read-out: Mean EC50, α7-5HT3): 8200 nM; EC50 (α7^L131G-5HT3 HC): 11000 nM; EC50 (α7^Q79S-5HT3): 4400 nM; EC50 (α7GABAc (GABAA-ρ) W298A): 13300 nM; EC50 (α7^Q79A-5HT3): 4000 nM; EC50 [4, 5]: 4600 nM; EC50 [4, 6]: 5500 nM; EC50 [4, 7]: > 30000 nM; EC50 [4, 8]: 134 nM; EC50 [4, 9]: 14100 nM; EC50 (α7^Q79G-GlyR): 5600 nM; EC50 (α7^L131G,Y217F-GlyR): 30000 nM
Clc1ccc(C2CC3CCC2N3)cn1 (centres unmarked) [Epibatidine]	36	2600	27	12	380	144	650	210	5	9	267	42	> 10000	7	220	160	144	37	27	24	EC50 (α7-5HT3; read-out: Mean EC50, α7-5HT3, HEK cells, Table 1): 53 nM; EC50 (α7^L131G-5HT3 HC; α75HT3 L131G HC): 9 nM; EC50 (α7^Q79S-5HT3; HEK cells, Table 1): 44 nM; EC50 (α7GABAc (GABAA-ρ) W298A): 420 nM; EC50 (α7^Q79A-5HT3; HEK cells, Table 1): 67 nM; EC50 ([4]; α7GlyR Q79G A298G G175K Y115F; read-out: Agonist potency): 11 nM; EC50 ([4]; α7GlyR Q79G A298G P2161; read-out: Agonist potency): 50 nM; EC50 ([4]; α7GlyR Q79G A298G Y115F K395 K396A; read-out: Agonist potency): 150 nM; EC50 ([4]; α7GlyR Q79G G175K A298G; read-out: Agonist potency): 2.3 nM; EC50 ([4]; α7GlyR Q79G W77F A298G; read-out: Agonist potency): 370 nM; EC50 (α7^Q79G-GlyR): 69 nM; EC50 (α7^L131G,Y217F-GlyR): 15 nM
O=C(NC1CN2CCC1CC2)c1ccc(Cl)cc1 (centres unmarked) [PNU-282987]	100	500	48	63	> 40000	510	700	64	5	34	340	21	> 1000	6	80	410	50	60	55	14	EC50 (α7-GlyR^A298G): 35 nM; EC50 (α7-5HT3; read-out: Mean EC50, α7-5HT3): 220 nM; EC50 (α7-5HT3; read-out: α7-5HT3 EC50): 220 nM; EC50 (α7^L131G-5HT3 HC): 33 nM; EC50 (α7^Q79S-5HT3): 23 nM; EC50 (α7^Q79A-5HT3): 37 nM; EC50 [4, 5]: 9 nM; EC50 [4, 6]: 250 nM; EC50 [4, 7]: 110 nM; EC50 [4, 8]: 0.36 nM; EC50 [4, 9]: 1630 nM; EC50 (α7^Q79G-GlyR): 26 nM; EC50 (α7^L131G,Y217F-GlyR): 54 nM
